Where a SMILES comes first, the peptide text is derived from it. Bridges are numbered along the chain shown (N, C = ends). [ ]: non-standard residue; d: D form. pGlu = O=C1CC[C@@H](C(=O)O)N1
Key:
[1] = tested on: DFTD4 cells; assay: MTT cell viability, DFTD4 cells; type: cell-based, Tasmanian devil (Sarcophilus harrisii); conditions: 48 h; for anti-proliferative / cytotoxic activity compared with AgGom: DFTD cell lines (DFTD1, DFTD2, DFTD4); for cell viability / anti-proliferative activity in DFTD4 cells: 50 µg/mL
Excerpt: (§1) All DFTD (DFTD1, DFTD2, and DFTD4) and fibroblast (FIBS) cell lines were obtained from the Department of Primary Industries, Parks, Water, and Environment, State Government of Tasmania (DPIPWE) and were established as part of management plan and adhere to a standard operating practice. The DFTD1 cell line with catalogue number 3287 is derived from the tumour from a female devil (tag number: 06/2887) collected at St Marys, Eastern Tasmania in 2006. DFTD2 cell line with catalogue number 8961 was developed from a tumour from a male devil (tag number: 12/0625) collected at Kempton, Northern Tasmania in 2012. The DFTD4 cell line with catalogue number 4099 was developed from the tumour of a male devil (tag number: 07/0192) that was collected at Freycinet, east coast of Tasmania in 2007 and Fibroblasts cells (FIBS) with catalogue number 497 were obtained from a healthy devil male pup (tag number: 05/0962) held at Mount Pleasant, Southeastern of Tasmania in 2005.
(§2) Devil Facial Tumor cancer cell lines, and the control Tasmanian Devil fibroblast (FIBS) healthy cell line were maintained in a humidified incubator at 35 °C and 5% CO2. The DFTD cell lines were cultured in RPMI-1640 medium supplemented with 10% FCS, and 2 mM Glutamax. The FIBS was grown in GIBCO AmnioMAX-C100 Basal Medium liquid, containing AmnioMAX-C100 supplement. Penicillin/streptomycin (PS) (100 U/ml each) was added to both media. The cells were passaged at ~90% confluency. Functional studies were performed with passages up to 20. All cell lines were mycoplasma free.
(§3) Cell viability as an indicator of the number of viable and proliferative cells was measured by MTT according to the protocol of the manufacturer (Sigma-Aldrich, Australia). In brief, 8000 DFTD and 5000 FIBS cells/well were seeded in a 96-flat adherent microtiter well plate for 24 h to allow cell adhesion. Gomesin peptides and/or analogues were then added to the plates to measure MTT reduction. Plates were measured after 48 h at 540 nm absorbance in a microplate reader (BIOTEK PowerWave XS, USA). 0.1% SDS was used as a positive control (100% toxicity). A row of untreated cells was used to define 100% viability and blank wells containing only media were used to extract background. The concentration of gomesin peptides causing 50% inhibition (EC50) in DFTD and FIBS cells was determined using GraphPad Prism Software (Graphpad Inc, USA).

[2] = tested on: FIBS cells; assay: MTT cell viability, non-transformed fibroblasts (FIBS); type: cell-based, Tasmanian devil (Sarcophilus harrisii); conditions: 48 h; for deleterious effects on FIBS viability: 50 µg/mL
Excerpt: as §1, §2, §3

[3] = tested on: DFTD4 cells; assay: Cell cycle analysis (PI, flow cytometry); type: cell-based, Tasmanian devil (Sarcophilus harrisii); conditions: 50 μg/mL, 24 h, mean ± SEM, three independent experiments
Description: DFTD4 cells were synchronised by removing serum from the medium for ~24 h. Cells were then transferred into medium containing serum and treated with AgGom or HiGom at 50 µg/mL for 24 h. Cells were detached mechanically, washed with PBS and fixed with 70% ethanol for ~1 h at 4 °C. Ethanol was removed by centrifugation (453 g for 5 min) and cells were washed with PBS. Cells were treated with 5 µL of 10 µg/mL ribonuclease A to remove RNA contamination and further incubated for 1 h at 37 °C to allow release of low-molecular weight DNA. Cell pellets were stained with 10 µL of propidium iodide (PI) (1 mg/ml) and analysed at a maximum emission of 605 nm using a LSR Fortessa 5 analyser (BD Biosciences, San Diego, CA, US). Approximately 10,000 events were recorded and data were analysed using FlowJo software v10.06 (FlowJo, US).

[4] = tested on: DFTD4 cells; assay: Annexin V-FITC/PI apoptosis and necrosis; type: cell-based, Tasmanian devil (Sarcophilus harrisii); conditions: 24 h
Description: Apoptosis in DFTD4 cells treated with AgGom or HiGom was measured using an Annexin V-FITC Apoptosis detection kit in combination with a Canto II high-throughput fluorescence-activated cell sorter (BD Biosciences, USA). Briefly, cells were seeded at a density of 100,000 cells/well in a round-bottom 96-well plate and treated with 50 µg/mL AgGom or HiGom for 24 h. The cells were collected mechanically, washed twice with PBS and once with wash buffer provided by the manufacturer. Cells were stained simultaneously with FITC-labelled annexin V and PI for 30 min in the dark and at room temperature before being analysed.

[5] = tested on: DFTD4 cells; assay: Mitochondrial membrane potential (Rhodamine 123); type: cell-based, Tasmanian devil (Sarcophilus harrisii); conditions: 50 µg/mL, 24 h, vs. vehicle
Description: We measured the mitochondrial membrane potential (MMP) using Rhodamine 123 (Rhod-123) (Sigma-Aldrich, Australia), a cationic dye that is localised in mitochondria. Loss-of-MMP results in loss-of-Rhod-123 fluorescence. Approximately 1 × 10^6 DFTD4 cells treated with AgGom or HiGom at 50 µg/mL for 24 h were collected and resuspended in 0.1 ml of culture medium, stained with 10 µg/mL Rhod-123 for 30 min, and then washed with PBS. The intracellular concentration of Rho123 was determined immediately after by flow cytometry (BD Biosciences, USA) using an excitation wavelength of 488 nm. The data were analysed using FlowJo v10.06 (FlowJo, USA).

[6] = tested on: DFTD4 cells; assay: Reactive oxygen species (Carboxy-H2DCFDA, flow cytometry); type: cell-based, Tasmanian devil (Sarcophilus harrisii); conditions: 50 μg/mL, 24 h, vs. untreated
Description: An Amplex Red Hydrogen Peroxidase assay kit (Invitrogen, Australia) was used to measure reactive oxygen species (ROS) generation in DFTD4 cells. A fluorescence probe that detects intracellular H2O2, Carboxy-H2DCFDA, was added 30 min prior to collecting cells to measure ROS production in DFTD4 cells that were previously treated with gomesin peptides at 50 µg/mL for 24 h. Fluorescent cells were washed twice with PBS prior to analysis on a FACSCalibur flow cytometer (BD Biosciences, USA) using excitation and emission wavelengths of 492 nm and 517 nm, respectively. Approximately 10,000 events were recorded per sample and the readout was analysed using FlowJo software v10.06 (FlowJo, USA).

[7] = tested on: DFTD4 cells; assay: qRT-PCR of cell cycle check-point, pro-survival and apoptosis genes; type: cell-based, Tasmanian devil (Sarcophilus harrisii); conditions: 50 μg/mL, vs. vehicle
Description: Total RNA was extracted from both untreated (control) and gomesin-treated DFTD4 cells using an RNeasy kit (Qiagen, Australia) and 1 µg was reverse-transcribed into cDNA using SensiFast (Bioline, UK). Quantitative real time-PCR (qRT-PCR) to quantitate mRNA expression was performed on a LightCycler Instrument (Roche Molecular Biochemicals, Australia) with Tasmanian devil 18S used as the reference (housekeeper) gene. All primers are listed in Supplementary.

[8] = tested on: DFTD; conditions: human chemotherapeutic agents in Tasmanian devils; cited from earlier work
Excerpt: With no treatment available for DFTD, scientists maintain captive, disease-free breeding populations that are released into the wild. Major research efforts are focused on understanding the molecular mechanisms of DFTD and why tumour cells fail to stimulate an immune response in the Tasmanian Devil, including the dramatic downregulation of the expression of Major Histocompatibility Complex (MHC) Class I genes[5]–[9]. Previous trials to treat DFTD using human chemotherapeutic agents, such as vincristine, doxorubicin, and carboplatin have proven to be unsuccessful[10],[11]. In this study, we pos ...

CC(C)C[C@@H]1NC(=O)[C@H](CCCNC(=N)N)NC(=O)[C@H](CCCNC(=N)N)NC(=O)[C@@H](NC(=O)[C@@H]2CCC(=O)N2)CSSC[C@@H](C(=O)N[C@@H](CCCNC(=N)N)C(=O)NCC(=O)N[C@@H](CCCNC(=N)N)C(N)=O)NC(=O)[C@H](Cc2ccc(O)cc2)NC(=O)[C@H]([C@@H](C)O)NC(=O)[C@H](C(C)C)NC(=O)[C@@H]2CSSC[C@H](NC1=O)C(=O)N[C@@H](Cc1ccc(O)cc1)C(=O)N[C@@H](CCCCN)C(=O)N[C@@H](CC(N)=O)C(=O)N[C@@H](CCCNC(=N)N)C(=O)N2 [AgGomKN] ([pGlu]CRRLCYKNRCVTYCRGR-NH2; disulfide 2-15, 6-11)
anti-proliferative / cytotoxic activity compared with AgGom [1]: higher anti-proliferative activity than AgGom
deleterious effects on FIBS viability [2]: minimal deleterious effects

CC(C)C[C@@H]1NC(=O)[C@H](CCCNC(=N)N)NC(=O)[C@H](CCCNC(=N)N)NC(=O)[C@@H](NC(=O)[C@@H]2CCC(=O)N2)CSSC[C@@H](C(=O)N[C@@H](CCCNC(=N)N)C(=O)NCC(=O)N[C@@H](CCCNC(=N)N)C(N)=O)NC(=O)[C@H](Cc2ccc(O)cc2)NC(=O)[C@H]([C@@H](C)O)NC(=O)[C@H](C(C)C)NC(=O)[C@@H]2CSSC[C@H](NC1=O)C(=O)N[C@@H](Cc1ccc(O)cc1)C(=O)N[C@@H](CCCCN)C(=O)N[C@@H](CCCNC(=N)N)C(=O)N[C@@H](CCCNC(=N)N)C(=O)N2 [AgGomKR] ([pGlu]CRRLCYKRRCVTYCRGR-NH2; disulfide 2-15, 6-11)
anti-proliferative / cytotoxic activity compared with AgGom [1]: higher anti-proliferative activity than AgGom
deleterious effects on FIBS viability [2]: minimal deleterious effects

CC(C)C[C@@H]1NC(=O)[C@H](CCCNC(=N)N)NC(=O)[C@H](CCCNC(=N)N)NC(=O)[C@@H](NC(=O)[C@@H]2CCC(=O)N2)CSSC[C@@H](C(=O)N[C@@H](CCCNC(=N)N)C(=O)NCC(=O)N[C@@H](CCCNC(=N)N)C(N)=O)NC(=O)[C@H](Cc2ccc(O)cc2)NC(=O)[C@H]([C@@H](C)O)NC(=O)[C@H](C(C)C)NC(=O)[C@@H]2CSSC[C@H](NC1=O)C(=O)N[C@@H](Cc1ccc(O)cc1)C(=O)N[C@@H](CCCNC(=N)N)C(=O)N[C@@H](CC(N)=O)C(=O)N[C@@H](CCCNC(=N)N)C(=O)N2 [HiGom] ([pGlu]CRRLCYRNRCVTYCRGR-NH2; disulfide 2-15, 6-11)
G0/G1 [3]: 47.2 ± 0.66
G2/M [3]: 13.3 ± 0.7
S-phase [3]: 13.7 ± 1.9
early or late apoptotic cell ratio ([4]; 50 µg/mL): not altered
necrosis of DFTD cells compared to untreated cells ([4]; 50 µg/mL): significantly increased necrosis
MMP [5]: significant decrease in MMP
ROS [6]: significant increase in ROS
cell viability / anti-proliferative activity in DFTD4 cells [1]: dramatically reduced the cell viability
anti-proliferative / cytotoxic activity compared with AgGom [1]: more cytotoxic than AgGom
deleterious effects on FIBS viability [2]: not statistically significant
effects on FIBS viability ([2]; 0.5 to 25 µg/mL): negligible effects
expression of BCL2 [7]: enhanced
expression of p53 [7]: enhanced
p27 expression [7]: elevated

CC[C@H](C)[C@@H]1NC(=O)[C@H](CCCNC(=N)N)NC(=O)[C@H](CCCNC(=N)N)NC(=O)[C@@H](NC(=O)[C@@H]2CCC(=O)N2)CSSC[C@@H](C(=O)N[C@@H](CCCNC(=N)N)C(=O)NCC(=O)N[C@@H](CCCNC(=N)N)C(N)=O)NC(=O)[C@H](Cc2ccc(O)cc2)NC(=O)[C@H]([C@@H](C)O)NC(=O)[C@H](Cc2ccccc2)NC(=O)[C@@H]2CSSC[C@H](NC1=O)C(=O)NCC(=O)N[C@@H](CCCNC(=N)N)C(=O)N[C@@H](CCCNC(=N)N)C(=O)N[C@@H](CCCNC(=N)N)C(=O)N2 [SpGom] ([pGlu]CRRICGRRRCFTYCRGR-NH2; disulfide 2-15, 6-11)
anti-proliferative / cytotoxic activity compared with AgGom [1]: higher anti-proliferative activity than AgGom
deleterious effects on FIBS viability [2]: minimal deleterious effects

CC[C@@]1(O)C(=O)OCc2c1cc1n(c2=O)Cc2cc3ccccc3nc2-1 [camptothecin, reference compound]
late apoptosis ([4]; 10 µM, positive control): > 30%

N.N.O=C([O-])C1(C(=O)[O-])CCC1.[Pt+2] [carboplatin]
outcome of trials to treat DFTD [8]: unsuccessful

COc1cccc2c1C(=O)c1c(O)c3c(c(O)c1C2=O)C[C@@](O)(C(=O)CO)C[C@@H]3O[C@H]1C[C@H](N)[C@H](O)[C@H](C)O1 [doxorubicin]
outcome of trials to treat DFTD [8]: unsuccessful

CC[C@]1(O)C[C@H]2CN(CCc3c([nH]c4ccccc34)[C@@](C(=O)OC)(c3cc4c(cc3OC)N(C=O)[C@H]3[C@@](O)(C(=O)OC)[C@H](OC(C)=O)[C@]5(CC)C=CCN6CC[C@]43[C@@H]65)C2)C1 [vincristine]
outcome of trials to treat DFTD [8]: unsuccessful

ZCARLCYKQRCVTYCRGR-NH2 (bicyclic or more) [AgGomR3A, AgGom analogue R3A]
cell viability / anti-proliferative activity in DFTD4 cells [1]: eradicated the anti-proliferative activity

ZCRRACYKQRCVTYCRGR-NH2 (bicyclic or more) [AgGomL5A, AgGom analogue L5A]
cell viability / anti-proliferative activity in DFTD4 cells [1]: eradicated the anti-proliferative activity

ZCRRLCYKQRCATYCRGR-NH2 (bicyclic or more) [AgGomV12A, AgGom analogue V12A]
cell viability / anti-proliferative activity in DFTD4 cells [1]: eradicated the anti-proliferative activity

Reference: article PMC5841354, “Gomesin peptides prevent proliferation and lead to the cell death of devil facial tumour disease cells” (Cell Death Discovery, 2018)
